Results published in US4957923A, “Diuretic or antihypertensive composition” (Fujisawa Pharmaceutical Co., Ltd., priority 1988, dated 1990).

How the values were obtained:
DOCA hypertensive rats = test: Antihypertension action (DOCA hypertensive rats); format: in vivo, rat (Wistar)
Method: Male Wistar rats, 10 weeks old, were subjected to left nephrectomy and 2 to 4 days after operation, deoxycorticosterone acetate was administered subcutaneously in a dose of 30 mg/ml/kg twice a week. The animals were given 1% saline for drinking water and the individuals showing a mean blood pressure of ≥150 mmHg at 15 weeks of age were submitted to the experiment. After catheterization, saline for drinking water was replaced with tap water. At the beginning of the experiment, the test rats had mean blood pressures from 152 to 204 mmHg, heart rates from 354 to 462 beats/min. and body weights from 232 to 318 g. 3~5 Animals per group were used.
3 Or 4 days before the beginning of the experiment, one end of a catheter for blood pressure measurement was passed from the femoral artery to the abdominal aorta of each rat and the other end was passed beneath the skin and fixed in exposed position in the dorsocervical region. The drug was orally administered once a day for 5 consecutive days. The rats had been deprived of food for about 3 hours before drug administration. The blood pressure was measured before administration and 5 hours after administration of days 1, 3 and 5. At each blood pressure measurement, the mean blood pressure was observed via a pressure transducer connected to the dorsocervical end of the catheter for blood pressure measurement and the stabilized mean blood pressure was recorded.
Drug was suspended and diluted using a 0.5% solution of methylcellulose and 5ml/kg of the suspension was orally administered.

Female SD rats = test: Diuretic action (rats); format: in vivo, rat (SD); conditions: mean ± S.E.
Method: Female SD rats aged 6 weeks (9 rats per dosage) were used. After an 18-hour fast, the rats were dosed with the test drug and, at the same time, orally loaded with 20 ml/kg of physiological saline. The rats were then placed in metabolism cages, 3 animals per cage, and the 0-6 hour and 6-24 hour urines were collected. Meanwhile, the animals were additionally loaded with 25 ml/kg of physiological saline immediately after collection of the 0-6 hour urine. Na^+ in urine was determined with STAT/ION II (Technicon).
The results were respectively converted to the amounts of excretion per kg rat body weight, which were then tabulated as the mean±S.E. for each dose level.
The drug was suspended in 0.5% methylcellulose at necessary concentrations and 5 ml/kg of each suspension was orally administered. The control group similarly received 0.5% methylcellulose only.

Female beagle dogs = test: Diuretic action (beagle dogs); format: in vivo, dog (beagle); conditions: 100 mg/kg p.o., interval not given, mean ± S.E.
Method: Female beagle dogs weighing 8 to 10 kg were used (6 dogs per group). After an 18-hour fast, the animals were orally dosed with 5 ml/kg of suspensions of the drug in 0.5% methylcellulose and, at the same time, orally loaded with 15 ml/kg of physiological saline and the 0-6 hr and 6-24 hr urines were collected. Meanwhile, the dogs were additionally loaded with 20 ml/kg of physiological saline immediately after collection of the 0-6 hr urine. Na^+ in urine was determined with STAT/ION (Technicone).
The results were respectively converted to the amounts of excretion per kg body weight, which were then tabulated as the mean±S.E. for each dose level. The control group similarly received 0.5% methylcellulose instead of the drug.

[1] = 3.2 mg/kg p.o. once a day, Day 1 after 5 hr
[2] = 3.2 mg/kg p.o. once a day, Day 1 before administration (baseline)
[3] = 3.2 mg/kg p.o. once a day, Day 3 after 5 hr
[4] = 3.2 mg/kg p.o. once a day, Day 3 before administration
[5] = 3.2 mg/kg p.o. once a day, Day 5 after 5 hr
[6] = 3.2 mg/kg p.o. once a day, Day 5 before administration
[7] = 10 mg/kg p.o. once a day, Day 1 after 5 hr
[8] = 10 mg/kg p.o. once a day, Day 1 before administration (baseline)
[9] = 10 mg/kg p.o. once a day, Day 3 after 5 hr
[10] = 10 mg/kg p.o. once a day, Day 3 before administration
[11] = 10 mg/kg p.o. once a day, Day 5 after 5 hr
[12] = 10 mg/kg p.o. once a day, Day 5 before administration
[13] = 100 mg/kg p.o. once a day, Day 1 after 5 hr
[14] = 100 mg/kg p.o. once a day, Day 1 before administration (baseline)
[15] = 100 mg/kg p.o. once a day, Day 3 after 5 hr
[16] = 100 mg/kg p.o. once a day, Day 3 before administration
[17] = 100 mg/kg p.o. once a day, Day 5 after 5 hr
[18] = 100 mg/kg p.o. once a day, Day 5 before administration

With O=C(O)Cn1c(=O)n(Cc2ccc(Br)cc2F)c(=O)c2ccc(F)cc21 [Compound B, 2-[7-Fluoro-3-(4-bromo-2-fluorobenzyl)-1,2,3,4-tetrahydro-2,4-dioxoquinazolin-1-yl]acetic acid] the Mean blood pressure (DOCA hypertensive rats; [1]) was 176 mm Hg, the “Percentage of change (mean blood pressure)” value (“Percentage of change” below) (DOCA hypertensive rats; [1]) was -8.9% and the Mean blood pressure (DOCA hypertensive rats; [2]) was 193 mm Hg. The “Percentage of change” value (DOCA hypertensive rats; [2]) was 0.0%, the Mean blood pressure (DOCA hypertensive rats; [3]) was 160 mm Hg and the “Percentage of change” value (DOCA hypertensive rats; [3]) was -17.1%. The Mean blood pressure (DOCA hypertensive rats; [4]) was 175 mm Hg, the “Percentage of change” value (DOCA hypertensive rats; [4]) was -9.3% and the Mean blood pressure (DOCA hypertensive rats; [5]) was 161 mm Hg. The “Percentage of change” value (DOCA hypertensive rats; [5]) was -16.7%, the Mean blood pressure (DOCA hypertensive rats; [6]) was 167 mm Hg and the “Percentage of change” value (DOCA hypertensive rats; [6]) was -13.5%. For the same compound, the Mean blood pressure (DOCA hypertensive rats; [7]) was 148 mm Hg, the “Percentage of change” value (DOCA hypertensive rats; [7]) was -17.5% and the Mean blood pressure (DOCA hypertensive rats; [8]) was 180 mm Hg. For the same compound, the “Percentage of change” value (DOCA hypertensive rats; [8]) was 0.0%, the Mean blood pressure (DOCA hypertensive rats; [9]) was 132 mm Hg and the “Percentage of change” value (DOCA hypertensive rats; [9]) was -26.1%. The Mean blood pressure (DOCA hypertensive rats; [10]) was 137 mm Hg, the “Percentage of change” value (DOCA hypertensive rats; [10]) was -23.3% and the Mean blood pressure (DOCA hypertensive rats; [11]) was 143 mm Hg. For the same compound, the “Percentage of change” value (DOCA hypertensive rats; [11]) was -20.0%, the Mean blood pressure (DOCA hypertensive rats; [12]) was 139 mm Hg and the “Percentage of change” value (DOCA hypertensive rats; [12]) was -22.5%. The Mean blood pressure (DOCA hypertensive rats; [13]) was 151 mm Hg, the “Percentage of change” value (DOCA hypertensive rats; [13]) was -14.5% and the Mean blood pressure (DOCA hypertensive rats; [14]) was 176 mm Hg. For the same compound, the “Percentage of change” value (DOCA hypertensive rats; [14]) was 0.0%, the Mean blood pressure (DOCA hypertensive rats; [15]) was 130 mm Hg and the “Percentage of change” value (DOCA hypertensive rats; [15]) was -26.2%. The Mean blood pressure (DOCA hypertensive rats; [16]) was 144 mm Hg, the “Percentage of change” value (DOCA hypertensive rats; [16]) was -18.4% and the Mean blood pressure (DOCA hypertensive rats; [17]) was 135 mm Hg. The “Percentage of change” value (DOCA hypertensive rats; [17]) was -23.6%, the Mean blood pressure (DOCA hypertensive rats; [18]) was 138 mm Hg and the “Percentage of change” value (DOCA hypertensive rats; [18]) was -22.3%. The Urine volume (Female SD rats; 100 mg/kg p.o., 0-6 hr, control 13.2 ± 2.0) was 30.1 ± 1.5 mL/kg, the “Na^+ (urine)” value (Female SD rats; 100 mg/kg p.o., 0-6 hr, control 1460 ± 173) was 2416 ± 101 μEq/kg and the Urine volume (Female SD rats; 100 mg/kg p.o., 6-24 hr, control 26.59 ± 2.24) was 33.69 ± 0.55 mL/kg. For the same compound, the “Na^+ (urine)” value (Female SD rats; 100 mg/kg p.o., 6-24 hr, control 3830 ± 463) was 3940 ± 295 μEq/kg, the Urine volume (Female SD rats; 100 mg/kg p.o., total 0-24 hr, control 39.78 ± 4.26) was 63.75 ± 1.19 mL/kg and the “Na^+ (urine)” value (Female SD rats; 100 mg/kg p.o., total 0-24 hr, control 5289 ± 636) was 6356 ± 311 μEq/kg. For the same compound, the Urine volume (Female SD rats; 320 mg/kg p.o., 0-6 hr, control 13.2 ± 2.0) was 37.9 ± 1.5 mL/kg, the “Na^+ (urine)” value (Female SD rats; 320 mg/kg p.o., 0-6 hr, control 1460 ± 173) was 3021 ± 440 μEq/kg and the Urine volume (Female SD rats; 320 mg/kg p.o., 6-24 hr, control 26.59 ± 2.24) was 61.22 ± 6.20 mL/kg. For the same compound, the “Na^+ (urine)” value (Female SD rats; 320 mg/kg p.o., 6-24 hr, control 3830 ± 463) was 5861 ± 194 μEq/kg, the Urine volume (Female SD rats; 320 mg/kg p.o., total 0-24 hr, control 39.78 ± 4.26) was 99.10 ± 6.64 mL/kg and the “Na^+ (urine)” value (Female SD rats; 320 mg/kg p.o., total 0-24 hr, control 5289 ± 636) was 8882 ± 630 μEq/kg. The Urine volume (Female beagle dogs; control 5.8 ± 1.4) was 13.3 ± 2.6 mL/kg and the “Na^+ (urine)” value (Female beagle dogs; control 544 ± 133) was 1068 ± 280 μEq/kg.
